Experimental data taken from PMC11930985 (Nature Communications, 2025).
In brackets after ≈: the same amount, converted by molar mass. Several values for one entry are separate records, joined by “and”; a condition that tells them apart may be missing. Equal entries are not always repeated.

Legend:
AML/MDS patients = assay: ECG QTcF prolongation (Fridericia), graded; assay type: in vivo
Experimental: Electrocardiograms were obtained at screening, Cycle 1 Day 1–4, 8, and 15, Cycle 2 Day 1, 8 and 15, at Day 1 of each cycle thereafter, (up to and including Cycle 15), and at Final Study Visit. QT prolongation was assessed using the Fridericia correction QTcF=QT/RR3 [34]. Severity of QTcF prolongation was defined as follows: Grade 1: maximum prolongation 450–480 ms; Grade 2: maximum prolongation 481-500 ms; Grade 3: ≥501 ms on at least two separate ECGs; Grade 4: ≥501 ms or >60 ms change from baseline, with Torsades de pointes, polymorphic ventricular tachycardia or signs/symptoms of serious arrythmia; Grade 5: Death.

pS6 S235/S236 = assay: CyTOF maximal inhibition in Undefined/Immature Myeloid cells: pS6; assay type: in vivo; settings: Homo sapiens, N = 12 patients, read-out: EC50 (± standard error), pS6 S235/S236 inhibition
Excerpt: (§1) Pharmacodynamic endpoints included the measurement of inhibition of pAXL, pERK, pAKT, pS6 and pSTAT1/3/5 in blast cells (defined as cells with abnormal surface marker expression as compared to healthy donor peripheral blood mononuclear cells and undefined/immature myeloid cells (defined as cells carrying myeloid markers but lacking distinguishing terminal differentiation markers). Mass cytometry time of flight (CyTOF) was used for the determination of the pharmacodynamic markers using a previously validated and tested panel of mass-tagged antibodies[39],[40]. The antibodies in the panel are listed in Supplementary Table 5. Briefly, fixed leukocytes from peripheral blood were barcoded using a 20-plex metal barcoding kit (Standard Biotools, Cell-ID 201060) according to manufacturer’s protocol, allowing all the samples from a single individual to be stained and analysed in parallel. All analysis runs included barcoded peripheral blood mononuclear cells (PBMCs) from at least one healthy donor and an identical barcoded reference sample (mix of PBMCs from six healthy donors). […]
(§2) For each population, marker, and sample, the 95th percentile of the non-transformed expression values was calculated. […]

pSTAT5 Y694 = assay: CyTOF maximal inhibition in Undefined/Immature Myeloid cells: pSTAT5; assay type: in vivo, human
Excerpt: as §1, §2

Yes = tested on: Yes; parameters: method as in Investigator's Brochure (IB) version 5.0; settings: ref Investigator's Brochure (IB) version 5.0; cited from earlier work
Ret = tested on: Ret; parameters: method as in Investigator's Brochure (IB) version 5.0; settings: ref Investigator's Brochure (IB) version 5.0; cited from earlier work
Flt1 = tested on: Flt1; parameters: method as in Investigator's Brochure (IB) version 5.0; settings: ref Investigator's Brochure (IB) version 5.0; cited from earlier work
OCI-AML5 xenograft = tested on: OCI-AML5 xenograft; parameters: method as in Investigator's Brochure (IB) version 5.0; settings: ref Investigator's Brochure (IB) version 5.0; cited from earlier work
monkeys [1] = tested on: monkeys; parameters: method as in Investigator's Brochure (IB) version 5.0; settings: 28-day repeat dose; ref Investigator's Brochure (IB) version 5.0; cited from earlier work
monkeys [2] = tested on: monkeys; parameters: method as in Investigator's Brochure (IB) version 5.0; settings: ref Investigator's Brochure (IB) version 5.0, cited from earlier work
hERG channel = tested on: hERG channel; parameters: method as in Investigator's Brochure (IB) version 5.0; settings: ref Investigator's Brochure (IB) version 5.0; cited from earlier work
[3] = parameters: method as in Protocol BGBC001; settings: ref Protocol BGBC001, cited from earlier work

SMILES: Nc1nc(Nc2ccc3c(c2)CC[C@@H](N2CCCC2)CC3)nn1-c1cc2c(nn1)-c1ccccc1CCC2 [Bemcentinib]
- Grade 4 or Grade 5 QTcF prolongation events (AML/MDS patients; DE and LDAC cohorts): No patients
- No. of QTcF prolonged events: Grade 5 (AML/MDS patients; Dose Escalation Cohort Overall (N=36)): 0
- No. of QTcF prolonged events: Grade 1 (AML/MDS patients; human, in vivo): 8
- No. of QTcF prolonged events: Grade 2 (AML/MDS patients; human, in vivo): 7
- No. of QTcF prolonged events: Grade 3 (AML/MDS patients; human, in vivo): 5
- No. of QTcF prolonged events: Grade 4 (AML/MDS patients; human, in vivo): 0
- Patients with only Grade 1 or Grade 2 QTcF prolongation / patients with QTcF prolongation (AML/MDS patients; human, in vivo): 5/9
- Patients with Grade 3 QTcF prolongation (AML/MDS patients; in vivo): Four
- EC50 (pS6 S235/S236): 0.1187 ± 0.0011 mg/L (≈ 0.234 µM)
- EC50 (pSTAT5 Y694; Homo sapiens, Undefined/Immature Myeloid cells, N = 12 patients, read-out: EC50 (± standard error), pSTAT5 Y694 inhibition): 0.0913 ± 0.0014 mg/L (≈ 0.18 µM)
- Maximum inhibition (percent) pSTAT5 (Y694) (pSTAT5 Y694; Supplementary Figure 1b, individual patients): 86.7% and 72.9% and 100% and 27.9% and 21.4% and 51.2% and 0% and 36% and 58.4%
- IC50 (Yes): 0.043 µM
- IC50 (Ret): > 0.316 µM
- IC50 (Flt1): > 1 µM
- Tumor growth (OCI-AML5 xenograft): inhibited
- Target organs (monkeys [1]): liver, reticuloendothelial system and haematopoietic system
- QTc change compared to vehicle control and pre-dose values (monkeys [2]; 7.5 mg/kg and 15 mg/kg single oral): below 10%
- Heart rate (monkeys [2]; 7.5 mg/kg – 60 mg/kg single oral): recoverable, non-adverse decreases
- Magnitude of the QTc effect (monkeys [2]; highest dose level (60 mg/kg single oral)): 17%
- IC50 (hERG channel): 0.53 µM
- t1/2 ([3]; single oral dose, healthy subjects): > 24 h
- Estimated increase in exposure with food in some subjects ([3]; whole milk and buttered toast): up to two
